This note sets out measurements from US20250099596A1, “TETRAHYDRONAPHTHALENE COMPOUND, AND PREPARATION METHOD THEREFOR AND USE THEREOF IN MEDICINE” (Jiangsu Hengrui Pharmaceuticals Co., Ltd., priority 2021, published 2025).

For assay [1], the system named is MCF7 cells. As to the kind of experiment: Inhibitory effects on MCF7 cell proliferation (CellTiter-Glo). It counts as cell-based. As to conditions: Homo sapiens, 144 h, 6 days incubation, read-out: IC50 (nM), inhibition of MCF7 cell proliferation. The procedure: (§1) MCF7 cells (TCHu74, National Collection of Authenticated Cell Cultures) were cultured in an MEM (GE Healthcare, SH30024.01) complete medium containing 10% fetal bovine serum. On day 1 of the experiment, MCF7 cells were seeded into a 96-well plate at a density of 3,000 cells/well using MEM containing 2% fetal bovine serum, with each well containing 135 μL of cell suspension. The plate was incubated in a 37° C., 5% CO2 cell incubator overnight. The next day, different concentrations of test compounds prepared in media were added at 15 μL/well. The final concentrations of the compounds were 9 concentration points obtained by 4-fold serial dilution from 1000 nM. A blank control containing 0.5% DMSO was set up. The plate was incubated in a 37° C., 5% CO2 cell incubator for 6 days. On day 8, the 96-well cell culture plate was taken out, and CellTiter-Glo® Luminescent Cell Viability Assay (Promega, G7573) was added at 75 μL/well. After the plate was left at room temperature for 10 min, luminescence signal readings were taken on a multilabel microplate reader (PerkinElmer, VICTOR 3). The IC50 values for the inhibitory activity of the compounds were calculated from the concentrations of the compounds and the luminescence signal readings using Graphpad Prism software.
(Cellular ATP, detected with luciferase, serves as a proxy for viable cell number.)

In assay [2] the test system is MCF7/ERα Y537S cells. Briefly: Inhibitory activity on proliferation of ERα mutant-expressing MCF7 cells. It counts as cell-based. To be noted: Homo sapiens, 144 h, 6 days incubation, CellTiter-Glo, read-out: IC50 (nM), inhibition of proliferation of ERα mutant-expressing MCF7 cells. How it is done:
The objective of this experiment was to determine the inhibitory activity of the compounds of the present disclosure on the proliferation of ERα mutant-expressing MCF7 cells.
as §1, with “cells expressing the ERα Y537S mutant were constructed by lentiviral infection. MCF7/ERα Y537S cells” for “cells (TCHu74, National Collection of Authenticated Cell Cultures)”, “bovine serum and […] puromycin.” for “bovine serum.”, “experiment,” for “experiment, MCF7”, “135 µL” for “135 μL”, “75 µL/well.” for “75 μL/well.”

In the case of `O=C1CCC(N2Cc3cc(N4CCN(CC5CCN(c6ccc(C7c8ccc(O)cc8CC[C@@H]7C7CCOCC7)cc6)CC5)CC4)ccc3C2=O)C(=O)N1` (stereo partly drawn) [Example 7, 3-(5-(4-((1-(4-((1,2)-cis-6-Hydroxy-2-(tetrahydro-2H-pyran-4-yl)-1,2,3,4-tetrahydronaphthalen-1-yl)phenyl)piperidin-4-yl)methyl)piperazin-1-yl)-1-oxoisoindolin-2-yl)piperidine-2,6-dione], the values for the IC50 in assay [1] and in assay [2] were 0.67 nM and 3.31 nM, respectively.
The like results for `O=C1CC[C@H](N2Cc3cc(N4CCN(CC5CCN(c6ccc([C@@H]7c8ccc(O)cc8CC[C@@H]7C7CCCCC7)cc6F)CC5)CC4)ccc3C2=O)C(=O)N1` [Example 20, (S)-3-(5-(4-((1-(4-((1R,2R)-2-Cyclohexyl-6-hydroxy-1,2,3,4-tetrahydronaphthalen-1-yl)-2-fluorophenyl)piperidin-4-yl)methyl)piperazin-1-yl)-1-oxoisoindolin-2-yl)piperidine-2,6-dione] were, in that order, 0.73 nM and 2.74 nM.
On to `O=C1CCC(N2Cc3cc(N4CCN(CC5CCN(c6ccc([C@@H]7c8ccc(O)cc8CC[C@@H]7C7CCOCC7)c(F)c6)CC5)CC4)ccc3C2=O)C(=O)N1` (mixture of isomers) [Example 12-1, 3-(5-(4-((1-(3-Fluoro-4-((1S,2R)-6-hydroxy-2-(tetrahydro-2H-pyran-4-yl)-1,2,3,4-tetrahydronaphthalen-1-yl)phenyl)piperidin-4-yl)methyl)piperazin-1-yl)-1-oxoisoindolin-2-yl)piperidine-2,6-dione], for which the results for the IC50 in assay [1] and in assay [2] were 0.45 nM and 1.28 nM, respectively.
For `O=C1CC[C@H](N2Cc3cc(N4CCN(CC5CCN(c6ccc([C@@H]7c8ccc(O)cc8CC[C@@H]7C7CCOCC7)cc6F)CC5)CC4)ccc3C2=O)C(=O)N1` [Example 5, (S)-3-(5-(4-((1-(2-Fluoro-4-((1R,2R)-6-hydroxy-2-(tetrahydro-2H-pyran-4-yl)-1,2,3,4-tetrahydronaphthalen-1-yl)phenyl)piperidin-4-yl)methyl)piperazin-1-yl)-1-oxoisoindolin-2-yl)piperidine-2,6-dione], the IC50 was determined as 0.72 nM in assay [1] and 2.29 nM in assay [2].
On the same counts, the results for `CC(C)C[C@H]1CCc2cc(O)ccc2[C@H]1c1ccc(N2CCC(CN3CCN(c4ccc5c(c4)CN([C@H]4CCC(=O)NC4=O)C5=O)CC3)CC2)c(F)c1` [Example 37, (S)-3-(5-(4-((1-(2-Fluoro-4-((1R,2R)-6-hydroxy-2-isobutyl-1,2,3,4-tetrahydronaphthalen-1-yl)phenyl)piperidin-4-yl)methyl)piperazin-1-yl)-1-oxoisoindolin-2-yl)piperidine-2,6-dione] are 1.46 nM and 5.27 nM.
With `CCC(CC)C[C@H]1CCc2cc(O)ccc2[C@H]1c1ccc(N2CCC(CN3CCN(c4ccc5c(c4)CN([C@H]4CCC(=O)NC4=O)C5=O)CC3)CC2)cc1` [Example 38, (S)-3-(5-(4-((1-(4-((1R,2R)-6-Hydroxy-2-(2-ethylbutyl)-1,2,3,4-tetrahydronaphthalen-1-yl)phenyl)piperidin-4-yl)methyl)piperazin-1-yl)-1-oxoisoindolin-2-yl)piperidine-2,6-dione], the figures for the IC50 in assay [1] and in assay [2] were 4.64 nM and 13.8 nM, respectively.
The like results for `O=C1CCC(N2Cc3cc(N4CCN(CC5CCN(c6ccc([C@@H]7c8ccc(O)cc8CCC78CCCC8)cc6F)CC5)CC4)ccc3C2=O)C(=O)N1` (stereo in doubt) [Example 36, (S)-3-(5-(4-((1-(2-Fluoro-4-((R)-6′-hydroxy-3′,4′-dihydro-1′H-spiro[cyclopentane-1,2′-naphthalen]-1′-yl)phenyl)piperidin-4-yl)methyl)piperazin-1-yl)-1-oxoisoindolin-2-yl)piperidine-2,6-dione] were, in that order, 1.56 nM and 8.35 nM.
For `O=C1CCC(N2Cc3cc(N4CCN(CC5CCN(c6ccc([C@@H]7c8ccc(O)cc8CC[C@@H]7C7CCC(F)(F)CC7)cc6)CC5)CC4)ccc3C2=O)C(=O)N1` (mixture of isomers) [Example 10, 3-(5-(4-((1-(4-((1R,2R)-2-(4,4-Difluorocyclohexyl)-6-hydroxy-1,2,3,4-tetrahydronaphthalen-1-yl)phenyl)piperidin-4-yl)methyl)piperazin-1-yl)-1-oxoisoindolin-2-yl)piperidine-2,6-dione], the IC50 in assay [1] amounted to 0.3 nM; in assay [2], 1.38 nM.
With `O=C1CCC(N2Cc3cc(N4CCN(CC5CCN(c6ccc([C@@H]7c8ccc(O)cc8CC[C@@H]7C7CCOCC7)cc6F)CC5)CC4)ccc3C2=O)C(=O)N1` (mixture of isomers) [Example 4-1, 3-(5-(4-((1-(2-Fluoro-4-((1R,2R)-6-hydroxy-2-(tetrahydro-2H-pyran-4-yl)-1,2,3,4-tetrahydronaphthalen-1-yl)phenyl)piperidin-4-yl)methyl)piperazin-1-yl)-1-oxoisoindolin-2-yl)piperidine-2,6-dione], the IC50 in assay [1] stood at 0.92 nM; in assay [2], 4.71 nM.
On the same counts, the results for `O=C1CCC(N2Cc3cc(N4CCN(CC5CCN(c6ccc([C@@H]7c8ccc(O)cc8CC[C@@H]7C7CCCC7)cc6)CC5)CC4)ccc3C2=O)C(=O)N1` (mixture of isomers) [Example 14-1, 3-(5-(4-((1-(4-((1R,2R)-2-Cyclopentyl-6-hydroxy-1,2,3,4-tetrahydronaphthalen-1-yl)phenyl)piperidin-4-yl)methyl)piperazin-1-yl)-1-oxoisoindolin-2-yl)piperidine-2,6-dione] are 0.75 nM and 2.45 nM.
On the same counts, the results for `O=C1CCC(N2Cc3cc(N4CCN(CC5CCN(c6ccc([C@H]7c8ccc(O)cc8CC[C@H]7C7CCCCC7)cc6)CC5)CC4)ccc3C2=O)C(=O)N1` (stereo partly drawn) [Example 15-2, 3-(5-(4-((1-(4-((1S,2S)-2-Cyclohexyl-6-hydroxy-1,2,3,4-tetrahydronaphthalen-1-yl)phenyl)piperidin-4-yl)methyl)piperazin-1-yl)-1-oxoisoindolin-2-yl)piperidine-2,6-dione] are 14.3 nM and 31.4 nM.
For `CC(C)CC[C@H]1CCc2cc(O)ccc2[C@H]1c1ccc(N2CCC(CN3CCN(c4ccc5c(c4)CN([C@H]4CCC(=O)NC4=O)C5=O)CC3)CC2)cc1` [Example 40, (S)-3-(5-(4-((1-(4-((1R,2S)-6-Hydroxy-2-isopentyl-1,2,3,4-tetrahydronaphthalen-1-yl)phenyl)piperidin-4-yl)methyl)piperazin-1-yl)-1-oxoisoindolin-2-yl)piperidine-2,6-dione], the values for the IC50 in assay [1] and in assay [2] were 3.17 nM and 8.89 nM, respectively.
Regarding `O=C1CC[C@@H](N2Cc3cc(N4CCN(CC5CCN(c6ccc([C@@H]7c8ccc(O)cc8CC[C@@H]7C7CCOCC7)cc6F)CC5)CC4)ccc3C2=O)C(=O)N1` [Example 43, (R)-3-(5-(4-((1-(2-Fluoro-4-((1R,2R)-6-hydroxy-2-(tetrahydro-2H-pyran-4-yl)-1,2,3,4-tetrahydronaphthalen-1-yl)phenyl)piperidin-4-yl)methyl)piperazin-1-yl)-1-oxoisoindolin-2-yl)piperidine-2,6-dione], the IC50 in assay [1] was 3.57 nM; in assay [2], 36.3 nM.
Regarding `O=C1CCC(N2Cc3cc(N4CCN(CC5CCN(c6ccc([C@@H]7c8ccc(O)cc8CC[C@@H]7C7CCOCC7)cc6F)CC5)CC4)ccc3C2=O)C(=O)N1` (relative stereo) [Example 3, 3-(5-(4-((1-(2-Fluoro-4-((1,2)-cis-6-hydroxy-2-(tetrahydro-2H-pyran-4-yl)-1,2,3,4-tetrahydronaphthalen-1-yl)phenyl)piperidin-4-yl)methyl)piperazin-1-yl)-1-oxoisoindolin-2-yl)piperidine-2,6-dione], the IC50 in assay [1] came to 1.56 nM; in assay [2], 5.79 nM.
